This is an account of results in patent publication US20240246941A1, “SUBSTITUTED 4-(3-AMINOPROP-1-YL)AMINOQUINOLINE ANALOGS AS MODULATORS OF MELANOMA-ASSOCIATED ANTIGEN 11 UBIQUITIN LIGASE” (ST. JUDE CHILDREN'S RESEARCH HOSPITAL, INC., priority 2020, published 2024).

Where a SMILES comes first, the peptide text is derived from it. [ ]: non-standard residue; d: D form. Phe(4-CN) = N#Cc1ccc(C[C@H](N)C(=O)O)cc1

The IC50 is the point on the concentration scale where inhibition reaches its midpoint.

Chain of interaction between GST-MAGEA11 MHD and FAM-PCF11_4 peptide (MAGE-A11:PCF11) (P43364 218-429): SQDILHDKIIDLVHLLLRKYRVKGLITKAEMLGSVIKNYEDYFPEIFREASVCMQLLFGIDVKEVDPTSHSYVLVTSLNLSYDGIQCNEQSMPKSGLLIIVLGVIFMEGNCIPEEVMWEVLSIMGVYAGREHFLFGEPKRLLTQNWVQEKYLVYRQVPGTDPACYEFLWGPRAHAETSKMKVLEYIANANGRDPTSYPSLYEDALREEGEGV

The target of the first assay is interaction between GST-MAGEA11 MHD and FAM-PCF11_4 peptide (MAGE-A11:PCF11) (Homo sapiens (Human), UniProt P43364). In words: TR-FRET dose response competition assay for disruption of MAGE-A11:PCF11 binding. Conditions: Dose response TR-FRET screening of nine scaffold groups against MAGE-A11:PCF11; read-out: consensus IC50. The procedure, abridged:
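Competition TR-FRET at room temperature in 50 mM Tris pH 7.5, 20 mM MgCl2, 0.1 mg/ml BSA, 1 mM DTT: final 5 nM GST-MAGEA11 MHD, 5 nM Tb-anti-GST, 200 nM FAM-PCF11_4, 90 min. Ratio 520/490 nm converted to % inhibition; IC50 from sigmoidal fit.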
Turning to `COc1cccc(CNCCCNc2ccnc3cc(Oc4ccc(F)cc4)ccc23)c1O` [SJ000311223-1], the IC50 was determined as 61.9 µM.

With `COc1cccc(CNCCCNc2ccnc3cc(Cc4c(Cl)cccc4Cl)ccc23)c1O` [SJ000311315-1], the IC50 was 13.8 µM.

`Nc1nc(Nc2ccc(O)cc2)nc2ccccc12` [SJ000045622-1]: the IC50 worked out at 69.9 µM.

Consider `CCOC(=O)Cn1cnc2cc(-c3ccc(OC)cc3)sc2c1=O` [SJ000399862-1], for which the IC50 worked out at 69.9 µM.

As for `COc1ccc(C(F)(F)F)cc1CNCCCNc1ccnc2cc(Cl)ccc12` [SJ000521036-1], the IC50 was 69.9 µM.

Turning to `Cn1c(-c2cccc(F)c2)nc2c1c(=O)[nH]c(=O)n2Cc1ccccc1` [SJ000387665-1], the IC50 came out at 69.9 µM.

With `N#Cc1nc(-c2ccc(Cl)cc2)oc1N1CCOCC1` [SJ000010022-1], the IC50 amounted to 69.9 µM.

Consider `Cc1ccc(-c2nc(S(=O)(=O)c3ccc(Cl)cc3)c(N3CCOCC3)o2)cc1` [SJ000140851-1], for which the IC50 came out at 69.9 µM.

As to `COc1ccc(F)cc1CNCCCNc1ccnc2cc(Cc3ccc(F)cc3Cl)ccc12` [SJ000311325-1], the IC50 was 17.6 µM.

In the case of `CCCCCn1c(-c2cccc(OC)c2)nc2c1c(=O)[nH]c(=O)n2CCCC` [SJ000451928-1], the IC50 amounted to 69.9 µM.

Regarding `CCCn1c(-c2ccc(OC(F)F)cc2)nc2c1c(=O)[nH]c(=O)n2Cc1ccccc1` [SJ000376621-1], the IC50 stood at 69.9 µM.

In the case of `C=CCn1c(=O)c2c(nc(-c3ccc(S(=O)(=O)O)cc3)n2C)n(C)c1=O` [SJ000287614-4], the IC50 is 75.1 µM.

Take `Cc1ccc(Nc2nc(N)c3ccccc3n2)cc1C` [SJ000202381-1]: the IC50 turned out to be 69.9 µM.

`CCCCn1c(=O)[nH]c(=O)c2c1nc(-c1ccc(O)c(OC)c1)n2CCC` [SJ000429070-1]: the half-maximal inhibitory concentration (IC50) amounted to 69.9 µM.

As to `FC(F)(F)Oc1ccc(CNCCCNc2ccnc3cc(C(F)(F)F)ccc23)cc1` [SJ000521050-1], the IC50 was found to be 69.9 µM.

`COc1cccc(F)c1CNCCCNc1ccnc2cc(Cl)ccc12` [SJ000311328-2]: the IC50 worked out at 69.9 µM.

Consider `CCC(C)(C)NC(=O)Cn1cnc2cc(-c3ccccc3)sc2c1=O` [SJ000425613-1], for which the IC50 was found to be 69.9 µM.

`COc1ccc(-c2cc3ncn(CC(=O)NCc4ccccc4Cl)c(=O)c3s2)cc1` [SJ000449845-1]: the IC50 is 69.9 µM.

As for `FC(F)(F)Oc1cccc(CNCCCNc2ccnc3cc(C(F)(F)F)ccc23)c1` [SJ000521045-2], the IC50 stood at 69.9 µM.

Regarding `CCc1ccc(CNCCCNc2ccnc3cc(C(F)(F)F)ccc23)cc1` [SJ000521067-1], the IC50 was 40.9 µM.

With `CC1CN(c2oc(-c3ccc(Cl)cc3)nc2C#N)CC(C)O1` (centres unmarked) [SJ000478208-1], the IC50 was 69.9 µM.

As for `CCCN1C(=O)c2ccccc2NC1c1ccc(C)cc1` (centres unmarked) [SJ000288423-2], the IC50 worked out at 69.9 µM.

Take `O=C1C(Cl)=C(N2CCN(S(=O)(=O)c3ccc(Br)cc3)CC2)C(=O)c2ccccc21` [SJ000033014-1]: the IC50 was 69.9 µM.

Take `CCn1c2ccccc2c2cc(CN3CCCC(O)C3)ccc21` (centres unmarked) [SJ000550874-1]: the IC50 turned out to be 69.9 µM.

As for `CCNC1=C(Cl)C(=O)c2ccccc2C1=O` [SJ000157082-1], the IC50 is 69.9 µM.

Take `CN(C)c1ccc(-c2nc3c(c(=O)[nH]c(=O)n3Cc3ccccc3)n2C)cc1` [SJ000396262-1]: the IC50 came to 69.9 µM.

Take `NC1=C(Nc2ccc(I)cc2)C(=O)c2ccccc2C1=O` [SJ000032712-1]: the IC50 turned out to be 69.9 µM.

Consider `CCN1CCN(c2nc(N)c3ccccc3n2)CC1` [SJ000202571-1], for which the IC50 amounted to 69.9 µM.

On to `CCC(C)N1C(=O)c2ccccc2NC1c1cccc(OC)c1O` (centres unmarked) [SJ000413320-1], for which the IC50 came out at 69.9 µM.

Consider `CCCCn1c(=O)[nH]c(=O)c2c1nc(-c1ccc(C#N)cc1)n2C` [SJ000421295-1], for which the IC50 was 69.9 µM.

For `FC(F)(F)c1ccc2c(NCCCNCc3ccc4[nH]ccc4c3)ccnc2c1` [SJ000521054-1], the half-maximal inhibitory concentration (IC50) amounted to 0.397 µM.

With `CCCn1c(-c2cccc(F)c2)nc2c1c(=O)[nH]c(=O)n2Cc1ccccc1` [SJ000382299-1], the IC50 was found to be 69.9 µM.

Take `CCCc1ccc(C2=C(c3ccc([N+](=O)[O-])cc3)C(=O)OC2)cc1` [SJ000368117-1]: the IC50 amounted to 69.9 µM.

With `COc1ccc(CN2C(=O)c3ccccc3NC2c2ccc([N+](=O)[O-])cc2)cc1` (centres unmarked) [SJ000510745-1], the IC50 was determined as 69.9 µM.

Turning to `CC(C)(C)NC(=O)NC(=O)Cn1cnc2cc(-c3ccccc3)sc2c1=O` [SJ000427956-1], the IC50 is 69.9 µM.

For the compound `CCC(CC)c1ccc2c(NCCCNCc3cccc(OC)c3O)ccnc2c1` [SJ000311267-1], the IC50 came out at 9.95 µM.

`COc1cc(Cc2ccc3c(NCCCNCc4cccc(OC)c4O)ccnc3c2)cc(OC)c1` [SJ000311311-1]: the IC50 was 33.6 µM.

Consider `Clc1ccc(Oc2ccc3c(NCCCNCc4cccc5c4OCO5)ccnc3c2)cc1` [SJ000311228-1], for which the IC50 was determined as 17.7 µM.

For `CCCN1C(=O)c2ccccc2NC1c1ccc(OC)c(CSc2ccccn2)c1` (centres unmarked) [SJ000288444-1], the half-inhibitory concentration (IC50) came to 69.9 µM.

Take `CCCn1c(=O)[nH]c(=O)c2c1nc(-c1cccc(Br)c1)n2CCOC` [SJ000431389-1]: the IC50 worked out at 69.9 µM.

Regarding `COc1cc(Cc2ccc3c(NCCCNCc4cc(F)ccc4OC)ccnc3c2)cc(OC)c1` [SJ000311313-1], the IC50 was 33.8 µM.

Take `COc1ccc(Oc2ccc3c(NCCCNCc4cccc(OC)c4O)ccnc3c2)cc1` [SJ000311219-1]: the IC50 worked out at 29 µM.

Regarding `C=CCOc1ccc(-c2nc3c(c(=O)[nH]c(=O)n3CCCC)n2C)cc1Br` [SJ000379462-1], the IC50 amounted to 69.9 µM.

For `CCn1c2ccccc2c2cc(CN3CCN(C)CC3)ccc21` [SJ000142908-1], the IC50 is 69.9 µM.

`CCOc1ccc(Nc2nc(N)c3ccccc3n2)cc1` [SJ000045621-1]: the IC50 was found to be 69.9 µM.

As to `CCCS(=O)(=O)N1CCN(Cc2ccc3c(c2)c2ccccc2n3CC)CC1` [SJ000167951-1], the IC50 worked out at 19.2 µM.

Regarding `CCn1c2ccccc2c2cc(CN3CCN(C(=O)c4ccc(OC)c(OC)c4)CC3)ccc21` [SJ000298589-1], the IC50 was 69.9 µM.

As to `OCCNCCNCc1ccc2[nH]c3ccccc3c2c1` [SJ000053962-1], the IC50 is 69.9 µM.

As for `COc1cc2nc(N3CCN(C(=O)OCc4ccccc4)C(C(=O)NC(C)(C)C)C3)nc(N)c2cc1OC` (centres unmarked) [SJ000288233-2], the IC50 turned out to be 69.9 µM.

Take `CN(Cc1ccno1)C(=O)c1ccc2c(c1)c1ccccc1n2C` [SJ000516830-1]: the IC50 stood at 69.9 µM.

With `CC(=O)N(C1=C(Cl)C(=O)c2ccccc2C1=O)c1ccc(Cl)cc1` [SJ000296883-2], the IC50 was found to be 69.9 µM.

Turning to `CCCCn1c(=O)[nH]c(=O)c2c1nc(-c1ccc(OCCC)c(OCC)c1)n2CCOC` [SJ000378946-1], the IC50 came to 69.9 µM.

For `CCCOc1ccc(C2Nc3ccccc3C(=O)N2CCCN2CCOCC2)cc1` (centres unmarked) [SJ000803758-1], the IC50 is 72.1 µM.

Consider `Fc1ccc(Cc2ccc3c(NCCCNCc4cccc5c4OCO5)ccnc3c2)cc1` [SJ000311244-1], for which the IC50 came out at 42.3 µM.

Regarding `CCCN1C(=O)c2ccccc2NC1c1ccc(OC)cc1` (centres unmarked) [SJ000026518-2], the IC50 came out at 69.9 µM.

Still in this assay, the particulars now being: PCF11 peptides; read-out: IC50 of PCF11 peptides binding to GST-MAGE-A11 by TR-FRET.
Take `CC[C@H](C)[C@H](NC(=O)[C@H](CCC(N)=O)NC(=O)[C@H](Cc1c[nH]cn1)NC(=O)[C@@H](NC(=O)[C@@H](NC(=O)[C@@H](NC(=O)[C@H](CC(C)C)NC(=O)[C@@H](N)Cc1ccccc1)C(C)C)C(C)C)C(C)C)C(=O)N[C@@H](CCCNC(=N)N)C(=O)N[C@@H](CCC(N)=O)C(=O)N[C@@H](CC(C)C)C(=O)N[C@@H](Cc1ccc(C#N)cc1)C(=O)N[C@@H](CCC(N)=O)C(=O)O` [4-cyano-phenylalaninnne] (H-FLVVVHQIRQL[Phe(4-CN)]Q-OH; N-terminus and C-terminus assumed): the IC50 came to 0.663 µM.

The assay is the same for the next values; noted with them: Table 5, dose response TR-FRET screening of 59 quinoline compounds against MAGE-A11:PCF11; read-out: TR-FRET IC50.
With `FC(F)(F)c1ccc2c(NCCCNCc3csc4ccccc34)ccnc2c1` [SJ000521061-1], the IC50 is over 70 µM.

As to `Cc1cc(C)cc(Cc2ccc3c(NCCCNCc4ccco4)ccnc3c2)c1` [SJ000311318-2], the IC50 was over 70 µM.

As for `Clc1ccc2c(NCCCN(Cc3ccccc3)Cc3ccc4[nH]ccc4c3)ccnc2c1` [SJ000520430-1], the IC50 stood at 41.7 µM.

The same assay, now with this note: Table 8, representative compounds; read-out: TR-FRET IC50.
In the case of `COc1cccc(F)c1CNCCCNc1ccnc2cc(Cl)ccc12` [SJ000311328], the IC50 was 69.9 µM.

Regarding `COC(=O)c1ccc(CNCCCNc2ccnc3cc(Cl)ccc23)cc1` [SJ000523067], the IC50 worked out at 69.9 µM.

Take `COc1ccc(F)c(CNCCCNc2ccnc3cc(C(F)(F)F)ccc23)c1` [SJ000521058]: the IC50 worked out at 69.9 µM.

As for `FC(F)(F)c1cccc(Cc2ccc3c(NCCCNCc4cccc5c4OCO5)ccnc3c2)c1` [SJ000311300], the IC50 came out at 12.8 µM.

`FC(F)(F)c1ccc2c(NCCCNCc3ccccc3C(F)(F)F)ccnc2c1` [SJ000521049]: the IC50 was found to be 69.9 µM.

As for `COc1ccc(OC(F)(F)F)cc1CNCCCNc1ccnc2cc(Cl)ccc12` [SJ000521035], the IC50 amounted to 69.9 µM.

`COc1cc(Cc2ccc3c(NCCCNCc4cccc(OC)c4O)ccnc3c2)cc(OC)c1` [SJ000311311]: the IC50 was 33.6 µM.

With `COc1ccc(Oc2ccc3c(NCCCNCc4cccc5c4OCO5)ccnc3c2)cc1` [SJ000311220], the IC50 was 43.7 µM.

Regarding `COc1ccc(F)cc1CNCCCNc1ccnc2cc(Cc3c(Cl)cccc3Cl)ccc12` [SJ000311317], the 50% inhibitory concentration (IC50) is 12.2 µM.

As for `COc1ccc(F)cc1CNCCCNc1ccnc2cc(Cc3ccc(F)cc3)ccc12` [SJ000311245], the IC50 amounted to 35.1 µM.

On to `COc1cccc(Oc2ccc3c(NCCCNCc4cc(F)ccc4OC)ccnc3c2)c1` [SJ000311217], for which the IC50 is 36.8 µM.

Regarding `c1ccc(Oc2ccc3c(NCCCNCc4cccc5c4OCO5)ccnc3c2)cc1` [SJ000311208], the IC50 is 30.1 µM.
